# Assay results from patent US9920030B2 (priority 2006, dated 2018).
# Read-outs that look alike come from different tables or passages of the source.
# Experiments:
# Type in all cases: in vivo
# [1] = tested on: Plasmopara vilicola (the causal agent of grape downy mildew); test: Test A: grape downy mildew, test suspension sprayed on grape seedlings after inoculation, visual disease rating
# From the text: General protocol for preparing test suspensions for Test A-C: The test compounds were first dissolved in acetone in an amount equal to 3% of the final volume and then suspended at the desired concentration (in ppm) in acetone and purified water (50/50 mix by volume) containing 250 ppm of the surfactant Trem® 014 (polyhydric alcohol esters). The resulting test suspensions were then used in Tests A-C. Spraying a 200 ppm test suspension to the point of run-off on the test plants was equivalent to a rate of 500 g/ha.
# Grape seedlings were inoculated with a spore suspension of Plasmopara vilicola (the causal agent of grape downy mildew) and incubated in a saturated atmosphere at 20° C. for 24 h. After a short drying period, the test suspension was sprayed to the point of run-off on the grape seedlings, which were then moved to a growth chamber at 20° C. for 5 days, after which time the grape seedling were placed back into a saturated atmosphere at 20° C. for 24 h. Upon removal, visual disease ratings were made.
# Results for Tests A-C are given in Table A. In the table, a rating of 100 indicates 100% disease control and a rating of 0 indicates no disease control (relative to the controls). A dash (-) indicates no test results.
# [2] = tested on: Phytophthora infestans (the causal agent of tomato late blight); test: whole plant or invertebrate
# [3] = tested on: Phytophthora infestans (the causal agent of tomato late blight); test: whole plant or invertebrate; remark: listed apart in the source
# [4] = compounds without asterisk (application rate not given), 100 = 100% disease control, 0 = no control relative to the controls
Compound,"Percent Disease Control, Test A [1, 4] [%]","Percent Disease Control, Test C [2, 4] [%]","Percent Disease Control, Test B [3, 4] [%]",other results
Cc1cc(C(F)(F)F)nn1CC(=O)N1CCC(c2nc(C3=NCC(c4ccccc4)CO3)cs2)CC1 (stereo not drawn) [Compound 53],,,,"Percent Disease Control, Test A ([1]; * tested at 40 ppm): 24%; Percent Disease Control, Test C ([2]; * tested at 40 ppm): 26%; Percent Disease Control, Test B ([3]; * tested at 40 ppm): 68%"
Cc1cc(C(F)(F)F)nn1CC(=O)N1CCC(c2nc(C3=NC(c4ccccc4)CCO3)cs2)CC1 (stereo not drawn) [Compound 54],16,0,73,
COC(=O)C1CC(c2csc(C3CCN(C(=O)Cn4nc(C(F)(F)F)cc4C)CC3)n2)=NO1 (stereo not drawn) [Compound 55],17,0,26,
Cc1cc(C(F)(F)F)nn1CC(=O)N1CCC(c2nc(C3=NOC(C(C)(C)C)C3)cs2)CC1 (stereo not drawn) [Compound 56],99,99,100,
Cc1cc(C(F)(F)F)nn1CC(=O)N1CCC(c2nc(C3=NOC(CCBr)C3)cs2)CC1 (stereo not drawn) [Compound 57],99,99,100,
Cc1cc(C(F)(F)F)nn1CC(=O)N1CCC(c2nc(-c3nc4ccccc4[nH]3)cs2)CC1 [Compound 58],0,0,99,
Cc1cc(C(F)(F)F)nn1CC(=O)N1CCC(c2nc(-c3cc(-c4ccccc4F)on3)cs2)CC1 [Compound 59],,,,"Percent Disease Control, Test A ([1]; * tested at 40 ppm): 97%; Percent Disease Control, Test C ([2]; * tested at 40 ppm): 91%; Percent Disease Control, Test B ([3]; * tested at 40 ppm): 100%"
Cc1cc(C(F)(F)F)nn1CC(=O)N1CCC(c2nc(-c3cc(-c4ccccc4C(F)(F)F)on3)cs2)CC1 [Compound 60],100,94,95,
Cc1cc(C(F)(F)F)nn1CC(=O)N1CCC(c2nc(-c3ccc4ccccc4c3)cs2)CC1 [Compound 61],80,0,77,
Cc1cc(C(F)(F)F)nn1CC(=O)N1CCC(c2nc(-c3ccccc3)cs2)CC1 [Compound 62],73,26,73,
Cc1cc(C(F)(F)F)nn1CC(=O)N1CCC(c2nc(-c3cc(-c4ccc(F)cc4F)on3)cs2)CC1 [Compound 64],90,88,99,
Cc1cc(C(F)(F)F)nn1CC(=O)N1CCC(c2nc(C3CC(=O)N(c4ccccc4)C3)cs2)CC1 (stereo not drawn) [Compound 65],46,83,100,
Cc1cc(C(F)(F)F)nn1CC(=O)N1CCC(c2nc(C3=NOC(C#N)C3)cs2)CC1 (stereo not drawn) [Compound 66],48,73,63,
Cc1cc(C(F)(F)F)nn1CC(=O)N1CCC(c2nc(C3=NOC4(CCCC4)C3)cs2)CC1 [Compound 67],,,,"Percent Disease Control, Test A ([1]; * tested at 40 ppm): 100%; Percent Disease Control, Test C ([2]; * tested at 40 ppm): 99%; Percent Disease Control, Test B ([3]; * tested at 40 ppm): 100%"
Cc1cc(C(F)(F)F)nn1CC(=O)N1CCC(c2nc(-c3nc(-c4ccccc4)no3)cs2)CC1 [Compound 68],96,88,95,
Cc1cc(C(F)(F)F)nn1CC(=O)N1CCC(c2nc(-c3ccc(Oc4ccccc4)cc3)cs2)CC1 [Compound 72],72,52,100,
Cc1cc(C(F)(F)F)nn1CC(=O)N1CCC(c2nc(-c3cccc4ccccc34)cs2)CC1 [Compound 73],27,0,40,
Cc1cc(C(F)(F)F)nn1CC(=O)N1CCC(c2nc(-c3cccc(-c4ccccc4)c3)cs2)CC1 [Compound 74],50,0,40,
Cc1cc(C(F)(F)F)nn1CC(=O)N1CCC(c2nc(-c3cccc(Oc4ccccc4)c3)cs2)CC1 [Compound 75],72,0,24,

Compound,"Percent Disease Control, Test A [1, 4] [%]","Percent Disease Control, Test C [2, 4] [%]","Percent Disease Control, Test B [3, 4] [%]",other results
Cc1cc(C(F)(F)F)nn1CC(=O)N1CCC(c2nc(-c3ccn(-c4ccccc4)n3)cs2)CC1 [Compound 76],72,67,92,
Cc1ccc(-n2cc(-c3csc(C4CCN(C(=O)Cn5nc(C(F)(F)F)cc5C)CC4)n3)nn2)cc1 [Compound 77],87,99,100,
Cc1cc(C(F)(F)F)nn1CC(=O)N1CCC(c2nc(-c3ccnn3-c3ccccc3)cs2)CC1 [Compound 78],0,0,0,
Cc1cc(C(F)(F)F)nn1CC(=O)N1CCC(c2nc(C3=NO[C@@H](c4ccccc4F)C3)cs2)CC1 [Compound 79],100,66,100,
COC1ON=C(c2csc(C3CCN(C(=O)Cn4nc(C(F)(F)F)cc4C)CC3)n2)CC1c1ccccc1 (stereo not drawn) [Compound 81],93,77,92,
Cc1cc(C(F)(F)F)nn1CC(=O)N1CCC(c2nc(-c3nn(-c4ccccc4)c(=O)[nH]3)cs2)CC1 [Compound 82],0,26,88,
Cc1cc(C(F)(F)F)nn1CC(=O)N1CCC(c2nc(-c3ccc(-c4ccccc4)o3)cs2)CC1 [Compound 83],46,0,92,
Cc1cc(C(F)(F)F)nn1CC(=O)N1CCC(c2nc(-c3csc(-c4ccccc4)n3)cs2)CC1 [Compound 84],67,0,33,
Cc1cc(C(F)(F)F)nn1CC(=O)N1CCC(c2nc(-c3ccc(-c4ccccc4)s3)cs2)CC1 [Compound 85],85,0,70,
Cc1cc(C(F)(F)F)nn1CC(=O)N1CCC(c2nc(-c3cc(-c4ccc(Cl)cc4Cl)no3)cs2)CC1 [Compound 86],83,14,79,
Cc1cc(C(F)(F)F)nn1CC(=O)N1CCC(c2nc(-c3cc(-c4ccc(Cl)c(Cl)c4)no3)cs2)CC1 [Compound 87],76,0,44,
Cc1cc(C(F)(F)F)nn1CC(=O)N1CCC(c2nc(C3=NOC(c4ccc5ccccc5c4)C3)cs2)CC1 (stereo not drawn) [Compound 88],,,,"Percent Disease Control, Test A ([1]; * tested at 40 ppm): 99%; Percent Disease Control, Test C ([2]; * tested at 40 ppm): 99%; Percent Disease Control, Test B ([3]; * tested at 40 ppm): 100%"
Cc1cc(C(F)(F)F)nn1CC(=O)N1CCC(c2nc(C3=NOC(c4ccc(C(C)(C)C)cc4)C3)cs2)CC1 (stereo not drawn) [Compound 91],,,,"Percent Disease Control, Test A ([1]; * tested at 40 ppm): 99%; Percent Disease Control, Test C ([2]; * tested at 40 ppm): 91%; Percent Disease Control, Test B ([3]; * tested at 40 ppm): 100%"
Cc1cc(C(F)(F)F)nn1CC(=O)N1CCC(c2nc(C3=NCC(c4ccccc4)N3)cs2)CC1 (stereo not drawn) [Compound 92],,,,"Percent Disease Control, Test A ([1]; * tested at 40 ppm): 13%; Percent Disease Control, Test C ([2]; * tested at 40 ppm): 9%; Percent Disease Control, Test B ([3]; * tested at 40 ppm): 33%"
Cc1cc(C(F)(F)F)nn1CC(=O)N1CCC(c2nc(C3=NOC(c4ccc(F)cc4)C3)cs2)CC1 (stereo not drawn) [Compound 96],,,,"Percent Disease Control, Test A ([1]; * tested at 40 ppm): 100%; Percent Disease Control, Test C ([2]; * tested at 40 ppm): 99%; Percent Disease Control, Test B ([3]; * tested at 40 ppm): 100%"
Cc1cc(C(F)(F)F)nn1CC(=O)N1CCC(c2nc(C3=NOC(c4ccc(C(F)(F)F)cc4)C3)cs2)CC1 (stereo not drawn) [Compound 97],,,,"Percent Disease Control, Test A ([1]; * tested at 40 ppm): 99%; Percent Disease Control, Test C ([2]; * tested at 40 ppm): 95%; Percent Disease Control, Test B ([3]; * tested at 40 ppm): 100%"
"Cc1cc(C(F)(F)F)nn1CC(=O)N1CCC(c2nc(C3=NOC(c4ccccn4)C3)cs2)CC1 (stereo not drawn) [Compound 98, 1-[4-[4-(4,5-dihydro-5-(2-pyridinyl)-3-isoxazolyl)-2-thiazolyl]-1-piperidinyl]-2-[5-methyl-3-(trifluoromethyl)-1H-pyrazol-1-yl]ethanone]",,,,"pest or weed control at 40 ppm ([1]; Plasmopara, 144 h, * tested at 40 ppm, read-out: Percent Disease Control, Test A): 77%; pest or weed control at 40 ppm ([2]; Phytophthora infestans, 96 h, read-out: Percent Disease Control, Test C): 99%; pest or weed control at 40 ppm ([3]; Phytophthora infestans, 144 h, read-out: Percent Disease Control, Test B): 100%"
Cc1cc(C(F)(F)F)nn1CC(=O)N1CCC(c2nc(C3=NC4CCCCC4N3)cs2)CC1 (stereo not drawn) [Compound 99],31,0,33,
Cc1cc(C(F)(F)F)nn1CC(=O)N1CCC(c2nc(C3=NOC(c4ccccc4)(C(C)C)C3)cs2)CC1 (stereo not drawn) [Compound 100],,,,"Percent Disease Control, Test A ([1]; * tested at 40 ppm): 100%; Percent Disease Control, Test C ([2]; * tested at 40 ppm): 99%; Percent Disease Control, Test B ([3]; * tested at 40 ppm): 100%"
